{
  "source": "patent US20180113128A1",
  "about": "“DETECTION OF URINARY TRACT INFECTIONS” (ISI Life Sciences, Inc., priority 2016, published 2018)",
  "type_in_all_cases": "biochemical",
  "key": {"urease [1]": {"test_system": "urease", "assay": "In vitro test demonstrating breakage of ester bonds (urea buffers with or without urease, 96 well)", "settings": "ten minutes", "text": "Two different fluorescein diesters were used in this example. These diesters were fluorescein dibutyrate and fluorescein dioctanoate both of which are commercially available or can be prepared by reacting fluorescein under conventional esterification techniques using as acid anhydrides, acid chlorides, etc. as described herein. The structure of fluorescein diesters is as set forth below:\nA. Fluorescein dibutryate (each R is —CH2CH2CH2CH3) B. Fluorescein dioctanoate (each R is —CH2CH2CH2CH2CH2CH3) • The assay was conducted with the following: 1. Assay Buffer A: 0.5 M Urea in phosphate buffered saline, pH 7 (freshly prepared from solid urea). 2. Assay Buffer B: Assay Buffer A plus 0.05% bovine serum albumin 3. Urease: 2000 u/mL in phosphate buffered saline (PBS). This equates to about 40 mg per mL. 4. Fluorescein diesters are dissolved in water with 1% DMSO.\n100 microliters of PBS, Assay Buffer A, or Assay Buffer B were added to wells of a 96 well cluster. • 10 microliters of urease were added to the indicated wells. • 5 microliters of each diester were added to each well.\nThe wells were monitored for ten minutes at which time a photograph was taken."}, "leukocyte esterases": {"test_system": "leukocyte esterases", "assay": "Fourth in vitro test: pro-label contacted with blood lysate", "text": "Certain E. coli species are a common cause of UTIs. […] So, unlike Example 3 where E. coli was used in the absence of blood components, this example evaluates the results of whether a blood lysate would deacylate the ester bonds of pro-labels. Specifically, this example evaluates if these esterases are present in sufficient quantities in the lysate to effect transformation of the pro-labels to labels by deacylation. Accordingly, fluorescein dioctanoate (a non-fluorescent pro-label) was contacted with a blood lysate. A control composition (phosphate buffered saline) containing the same pro-label was prepared. […] The first column contains the control and the second column contains the pro-labeled solution. This figure is taken at time equal to zero. […] As before, the left column is control and the right column is the blood lysate in the presence of fluorescein dioctanoate. […] As to the greenish tinge around the control test tubes, it is postulated that this is the result of reflection from the bright green fluorescence of the adjacent tubes (not shown). Those tubes were removed from FIG. 4 so as to allow a direct comparison between the control and fluorescein dioctanoate."}, "urease [2]": {"test_system": "urease", "assay": "Second in vitro test: pro-label in normal human urine with or without urease", "settings": "room temperature, approximately 10 minutes", "protocol": "In this example, fluorescein dioctanoate (a non-fluorescent derivative of fluorescein and a pro-label) was combined with normal urine recently obtained from a volunteer. The urine was divided into two containers. The first container (A) contained fluorescein dioctanoate added as a 1% solution in DMSO. The second container (B) additionally contained urease.\nBoth samples were maintained at room temperature for approximately 10 minutes and the samples were then evaluated for fluorescence. As is well known, the fluorescence emitted by fluorescein is typically a greenish-yellow color."}, "[3]": {"settings": "Buffer A: 0.5 M urea in PBS pH 7, no urease"}, "[4]": {"settings": "Buffer B: Buffer A plus 0.05% bovine serum albumin, no urease"}},
  "data": [
    {"smiles": "CCCC(=O)Oc1ccc2c(c1)Oc1cc(OC(=O)CCC)ccc1C21OC(=O)c2ccccc21", "note": "[fluorescein dibutyrate]", "values": [
      {"measurement": "fluorescence (photograph)", "setting": "urease [1]; [3]", "result": "no fluorescence"},
      {"measurement": "fluorescence (photograph)", "setting": "urease [1]; Buffer B+urease", "result": "fluorescence"},
      {"measurement": "fluorescence (photograph)", "setting": "urease [1]; [4]", "result": "minimal fluorescence"}
    ]},
    {"smiles": "CCCCCCCC(=O)Oc1ccc2c(c1)Oc1cc(OC(=O)CCCCCCC)ccc1C21OC(=O)c2ccccc21", "note": "[fluorescein dioctanoate]", "values": [
      {"measurement": "fluorescence upon application of UV light", "setting": "leukocyte esterases; blood lysate, incubation for 90 minutes", "result": "evidenced fluorescence"},
      {"measurement": "fluorescence upon application of UV light", "setting": "leukocyte esterases; control composition (phosphate buffered saline) containing the same pro-label, 90 minutes", "result": "did not"},
      {"measurement": "fluorescein fluorescence in urine sample", "setting": "urease [2]; normal human urine plus urease (container B)", "result": "presence of fluorescein fluorescence"},
      {"measurement": "fluorescein fluorescence in urine sample", "setting": "urease [2]; normal human urine, no urease (container A)", "result": "lack of fluorescein fluorescence"},
      {"measurement": "fluorescence (photograph)", "setting": "urease [1]; [3]", "result": "no fluorescence"},
      {"measurement": "fluorescence (photograph)", "setting": "urease [1]; Buffer B+urease", "result": "fluorescence"},
      {"measurement": "fluorescence (photograph)", "setting": "urease [1]; [4]", "result": "no to substantially no fluorescence"}
    ]}
  ]
}
